# What was measured:
# Type IV collagenase = Type IV collagenase inhibiting activity (fluorescence labeled gelatin); format: biochemical, human; conditions: from HT-1080 cell; 6 hours at 37° C., pH 7.5
# Description: (3) Measuring Method of Type IV Collagenase Inhibiting Activity
# Inhibiting of type IV collagenase refined from the culture supernatant of human […] (HT-1080 cell) was measured by using fluorescence labeled gelatin, according to the method proposed by Haris et al. [Haris, E. D., and Krane, S. M., Biochim. Biophys. Acta., 258, 566-576 (1972)].
# The enzyme was activated by incubating for 22 hours at 37° C. in 1 mM mercury (II) p-aminophenylacetate. The test compound was used by dissolving in dimethyl sulfoxide. The enzyme reaction was started by adding the activated enzyme in 50 mM TRIS-hydrochloric acid (pH 7.5), 10 mM CaCl2, 0.01% (w/v) "Bridge 35" (tradename, available from Wako Pure Chemical Industries, Ltd.), 0.1% (v/v) dimethyl sulfoxide solution containing the test compound and 0.1% (w/v) of fluorescence labeled gelatin as substrate. The reaction was conducted for 6 hours at 37° C., and stopped by adding 30% (w/v) trichloroacetic acid solution by 1/2 amount. After letting stand at 4° C. for 30 minutes, by centrifugal separation for 10 minutes at 10000 rpm, 4° C., the undigested substrate was precipitated. To 1 part by volume of the obtained supernatant, 50 parts by volume of 0.3M phosphate buffer (pH 8.5) was added, and the fluorescence intensity was measured at 520 nm (Em)/495 nm (Ex), and the undigested amount was quantitatively determined.
# The enzyme inhibiting activity was expressed by the concentration (IC50) of the test compound wherein the enzyme activity of known amount was blocked till 50%.
# Stromelysin = molecular target: T1, Stromelysin (Mus musculus, UniProt P28862); assay: Stromelysin inhibiting activity (fluorescence labeled casein); format: biochemical; conditions: from mouse colon cancer cell (Colon 26); 3 hours at 37° C., pH 7.5
# T1 construct: endogenous in cells; host or cells: Colon 26 (mouse colon cancer cells), culture supernatant, purified
# T1 sequence (P28862 100-477): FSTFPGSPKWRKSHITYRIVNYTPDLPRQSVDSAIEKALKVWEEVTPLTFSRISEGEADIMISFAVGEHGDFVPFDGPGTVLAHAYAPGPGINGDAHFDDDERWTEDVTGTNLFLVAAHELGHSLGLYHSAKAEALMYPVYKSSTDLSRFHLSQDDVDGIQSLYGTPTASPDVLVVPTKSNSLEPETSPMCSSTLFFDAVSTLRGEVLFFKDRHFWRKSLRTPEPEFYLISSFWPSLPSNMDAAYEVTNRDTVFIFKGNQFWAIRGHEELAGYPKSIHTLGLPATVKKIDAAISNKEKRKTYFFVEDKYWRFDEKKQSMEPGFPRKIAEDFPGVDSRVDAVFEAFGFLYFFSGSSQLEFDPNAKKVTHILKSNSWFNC
# Description: (1) Measuring Method of Stromelysin Inhibiting Activity
# Inhibiting of Stromelysin refined from the culture supernatant of mouse colon cancer cell (Colon 26 cell) was measured by using fluorescence labeled casein, according to the method proposed by Miyazaki et al. (J. Biochem., 108, 537-543, 1990), and S. S. Twining [Fed. Proc., 42, 1951 (1984)].
# The enzyme was activated by incubating for 2 hours at 37° C. in 1 mM mercury (II) p-aminophenylacetate. The test compound was used by dissolving in dimethyl sulfoxide. The enzyme reaction was started by adding the activated enzyme in a solution of 50 mM TRIS-hydrochloric acid (pH 7.5), 10 mM CaCl2, and 0.1% (v/v) dimethyl sulfoxide containing the test compound and 0.25% (w/v) of fluorescence labeled casein as substrate. The reaction was conducted for 3 hours at 37° C., and stopped by adding an equivalent amount of 5% (w/v) trichloroacetic acid solution. Afterwards, by centrifugal separation for 15 minutes at 3000 rpm, 4° C., the undigested substrate was precipitated, and to 1 part by volume of the obtained supernatant, 4 parts by volume of 0.3M phosphate buffer (pH 8.5) was added, and the fluorescence intensity was measured at 520 nm (Em)/495 nm (Ex), and the decomposition volume was quantitatively determined.
# (§1) The enzyme inhibiting activity was expressed by the concentration (IC50) of the test compound wherein the enzyme activity of known amount was inhibited till 50%.
# Interstitial collagenase = molecular target: T2, Interstitial collagenase (Homo sapiens, UniProt P03956); assay: Interstitial collagenase inhibiting activity (fluorescence labeled collagen); format: biochemical; conditions: from human fibroblast cell (Detroit 551); 2 hours at 35° C., pH 7.5
# T2 construct: endogenous in cells; host or cells: Detroit 551 (human fibroblasts), culture supernatant, purified
# T2 sequence (P03956 100-469): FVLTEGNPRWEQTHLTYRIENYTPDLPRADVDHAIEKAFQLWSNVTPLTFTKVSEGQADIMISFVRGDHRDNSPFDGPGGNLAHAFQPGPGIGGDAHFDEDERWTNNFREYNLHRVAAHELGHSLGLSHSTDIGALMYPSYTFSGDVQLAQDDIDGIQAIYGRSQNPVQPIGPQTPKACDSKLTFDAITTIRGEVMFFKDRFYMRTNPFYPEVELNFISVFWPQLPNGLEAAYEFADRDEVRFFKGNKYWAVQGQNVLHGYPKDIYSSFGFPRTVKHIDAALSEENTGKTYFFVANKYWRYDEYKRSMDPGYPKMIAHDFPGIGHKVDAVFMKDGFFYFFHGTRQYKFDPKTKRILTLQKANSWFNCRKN
# Description: (2) Measuring Method of Interstitial Collagenase Inhibiting Activity
# Inhibiting of interstitial collagenase refined from the culture supernatant of human fibroblast cell (Detroit 551 cell) was measured by using fluorescence labeled collagen, according to the method proposed by Nagai et al. [Inflammation, 4 (2), 123 (1984)].
# The enzyme was activated by incubating for 3 hours at 37° C. in 1 mM mercury (II) p-aminophenylacetate. The test compound was used by dissolving in dimethyl sulfoxide. The enzyme reaction was started by adding the activated enzyme in 50 mM TRIS-hydrochloric acid (pH 7.5), 0.2M NaCl, 5 mM CaCl2, 0.02% (w/v) NaN3, 2.5 mM acetic acid, and 0.1% (v/v) dimethyl sulfoxide solution containing the test compound and 0.025% (w/v) of fluorescence labeled collagen as substrate. The reaction was conducted for 2 hours at 35° C., and stopped by adding ice-chilled 80 mM O-phenanthroline, 50% (v/v) ethanol solution by 1/20 amount. To this, moreover, an equivalent volume of 50 mM TRIS-hydrochloric acid (pH 7.5), 0.2M NaCl, 5 mM CaCl2, 0.02% (w/v) NaN3 solution was added to incubate further for 1 hour at 35° C. to degenerate specifically only the digestion product, and the digestion product was extracted by adding 0.17M TRIS-hydrochloric acid (pH 9.5), 0.67M NaCl solution including an equivalent amount of 70% (v/v) ethanol, and afterwards, by centrifugal separation for 15 minutes at 3000 rpm, 4° C., the undigested substrate was precipitated. The fluorescence intensity of the obtained supernatant was measured at 520 nm (Em)/495 nm (Ex), and the decomposition volume was quantitatively determined.
# as §1
# [1] = tested on: Colon 26 PMF15 tumor cells; assay: Lung metastasis of Colon 26 PMF15 tumor in mice after oral administration; format: in vivo, male CDF1 mice; conditions: Test I; for Number of lung metastastic nodules mean ± S.E.: day 28; for Ratio to control group: lung nodules
# Description: Experiment was carried out according to a method of Motoyama et al. [Gan To Kagaku Ryoho (JAPAN), 21(8): pages 1209-1214, 1994]. That is, Colon 26 PMF15 tumor cells (5×10^5 /mouse) were inoculated into the left hind footpad of male CDF1 mice (one group comprising 7 mice). After 14 days from inoculation, the left hind-limb was cut from the upper part of the articulatio geniculum under pentobarbital anesthetization using a cautery knife to remove the primary tumor. After 28 days from inoculation,the lung was removed and the number of metastastic nodules on the surface thereof were measured, thereby taking it as an index of the effect. The test compound was orally administered one time a day until 27 days have passed since the day following the day when tumor cells were inoculated, excluding the day when the primary tumor was removed.
molecule,measurement,setting,value
"1-(4-carboxybenzyl)-3(R or S)-[4-(N-hydroxyamino)-2R-isobutylsuccinyl]amino-3,4-dihydrocarbostyril [Example 30]",IC50,Type IV collagenase,240 nM
"3S- [4-(N-hydroxyamino)-2R-isobutyl-3S-methylsuccinyl]amino-3,4-dihydrocarbostyril [Example 17]",IC50,Type IV collagenase,340 nM
"3S- [4-(N-hydroxyamino)-2R-isobutyl-succinyl ]amino-1-isobutoxy-3,4-dihydrocarbostyril [Example 21]",IC50,Type IV collagenase,340 nM
"3S-[4-(N-hydroxyamino)-2R-isobutyl-3S-methylsuccinyl]amino-1-(4-methoxybenzyl)-3,4dihydrocarbostyril [Example 31]",IC50,Type IV collagenase,1400 nM
"CC(C)C[C@@H](C(=O)N[C@H]1Cc2ccccc2NC1=O)C(CN1C(=O)c2ccccc2C1=O)C(=O)NO (single isomer, unassigned) [Test compound 7, 3S-[4-(N-hydroxyamino)-2R-isobutyl-3(R or S)-phthalimidomethylsuccinyl]amino-3,4-dihydrocarbostyril]",IC50,Stromelysin,23 nM
same,IC50,Type IV collagenase,18 nM
"CC(C)C[C@H](CC(=O)NO)C(=O)N[C@H]1Cc2ccccc2NC1=O [Test compound 1, 3S-[4-(N-hydroxyamino)-2R-isobutylsuccinyl]amino-3,4-dihydrocarbostyril]",IC50,Stromelysin,570 nM
same,IC50,Interstitial collagenase,210 nM
same,IC50,Type IV collagenase,1700 nM
"COc1ccc2c(c1)NC(=O)[C@@H](NC(=O)[C@@H](CC(=O)NO)CC(C)C)C2 [Test compound 2, 3S-[4-(N-hydroxyamino)-2R-isobutylsuccinyl]amino-7-methoxy-3,4-dihydrocarbostyril]",IC50,Stromelysin,490 nM
same,IC50,Interstitial collagenase,450 nM
same,IC50,Type IV collagenase,510 nM
"CON1C(=O)[C@@H](NC(=O)[C@@H](CC(=O)NO)CC(C)C)Cc2ccccc21 [Test compound 3, 3S-[4-(N-hydroxyamino)-2R-isobutylsuccinyl]amino-1-methoxy-3,4-dihydrocarbostyril]",IC50,Stromelysin,1300 nM
same,Number of lung metastastic nodules mean ± S.E.,[1]; 25 mg/kg/day oral,19.0 ± 3.7
same,Number of lung metastastic nodules mean ± S.E.,[1]; 50 mg/kg/day oral,18.7 ± 6.0
same,Number of lung metastastic nodules mean ± S.E.,[1]; 100 mg/kg/day oral,13.0 ± 5.2
same,Number of lung metastastic nodules mean ± S.E.,[1]; 200 mg/kg/day oral,9.2 ± 2.8
same,Ratio to control group,[1]; 25 mg/kg/day oral,90%
same,Ratio to control group,[1]; 50 mg/kg/day oral,88%
same,Ratio to control group,[1]; 100 mg/kg/day oral,61%
same,Ratio to control group,[1]; 200 mg/kg/day oral,43%
same,IC50,Interstitial collagenase,690 nM
same,IC50,Type IV collagenase,530 nM
"CC(=O)SC[C@H](C(=O)NO)[C@@H](CC(C)C)C(=O)N[C@H]1Cc2ccccc2NC1=O [Test compound 4, 3S-[4-(N-hydroxyamino)-2R-isobutyl-3S-acetylthiomethylsuccinyl]amino-3,4-dihydrocarbostyril]",IC50,Stromelysin,850 nM
same,IC50,Interstitial collagenase,2900 nM
same,IC50,Type IV collagenase,1900 nM
"CC(C)C[C@@H](C(=O)N[C@H]1Cc2ccccc2NC1=O)[C@H](CS)C(=O)NO [Test compound 5, 3S-[4-(N-hydroxyamino)-2R-isobutyl-3S-mercaptomethylsuccinyl]amino-3,4-dihydrocarbostyril]",IC50,Stromelysin,150 nM
same,IC50,Interstitial collagenase,360 nM
same,IC50,Type IV collagenase,540 nM
"CC(C)C[C@@H](C(=O)N[C@H]1Cc2ccccc2NC1=O)[C@H](CSc1cccs1)C(=O)NO [Test compound 6, 3S-[4-(N-hydroxyamino)-2R-isobutyl-3S-(2-thienylthiomethyl)succinyl]amino-3,4-dihydrocarbostyril]",IC50,Stromelysin,27 nM
same,IC50,Interstitial collagenase,2.4 nM
same,IC50,Type IV collagenase,58 nM
"COCOCCN1C(=O)[C@@H](NC(=O)[C@@H](CC(=O)NO)CC(C)C)Cc2ccccc21 [Test compound 19, 3S-[4-(N-hydroxyamino)-2R-isobutylsuccinyl]amino-1-methoxymethoxyethyl-3,4-dihydrocarbostyril]",IC50,Interstitial collagenase,140 nM
same,IC50,Type IV collagenase,9800 nM
"CC(C)C[C@H](CC(=O)NO)C(=O)N[C@H]1Cc2cc3c(cc2N(C)C1=O)OCO3 [Test compound 27, 3S-[4-(N-hydroxyamino)-2R-isobutylsuccinyl]amino-1-methyl-6,7-methylenedioxy-3,4-dihydrocarbostyril]",IC50,Interstitial collagenase,110 nM
same,IC50,Type IV collagenase,2200 nM
"CCCCC[C@H](CC(=O)NO)C(=O)N[C@H]1Cc2cc3c(cc2N(CC)C1=O)OCO3 [Test compound 29, 1-ethyl-3S-[4-(N-hydroxyamino)-2R-pentylsuccinyl]amino-6,7-methylenedioxy-3,4-dihydrocarbostyril]",IC50,Interstitial collagenase,14 nM
same,IC50,Type IV collagenase,200 nM

# — patent publication US5594006A, “Carbostyril derivatives as matrix metalloproteinases inhibitors” (Otsuka Pharmaceutical Co., Ltd., priority 1993, dated 1997)
